≈ marks a conversion by molar mass, not a printed value. Like-named read-outs stand apart in the source and are kept apart here.
What was measured:
Bacteroides fragilis = test: In vitro MIC testing against anaerobic bacteria; type: cell-based
[1] = test system: Fusobacterium necrophorum; test: In vitro MIC testing against anaerobic bacteria; type: cell-based; conditions: ATCC25286; Fusobacterium necrophorum 3963, ATCC 25286; read-out: MIC
Prevotella spp. = test: In vitro MIC testing against anaerobic bacteria; type: cell-based
S. pneumoniae = test: In vitro MIC testing, antibacterial spectrum of activity; type: cell-based, Streptococcus pneumoniae; conditions: for MIC50 / MIC90: S. pneumoniae [PSSP] (32 isolates); for MIC50: read-out: MIC50; for MIC90: read-out: MIC90
S. haemolyticus = test: as above; type: cell-based; conditions: S. haemolyticus (33 isolates); for MIC50 / MIC90: Staphylococcus haemolyticus; for MIC50: read-out: MIC50; for MIC90: read-out: MIC90
E. cloacae = test: as above; type: cell-based; conditions: Enterobacter cloacae; E. cloacae (30 isolates)
P. mirabilis = test: as above; type: cell-based; conditions: Proteus mirabilis; P. mirabilis (30 isolates)
Salmonella Spp. = test: as above; type: cell-based; conditions: Salmonella
[2] = test system: Streptococcus constellatus; test: In vitro MIC testing against anaerobic bacteria; type: cell-based; conditions: Streptococcus constellatus, ATCC27823
P. acnes = test: In vitro MIC testing, antibacterial spectrum of activity; type: cell-based, Propionibacterium acnes; conditions: for MIC50: read-out: MIC50; for MIC90: read-out: MIC90
S. aureus = test: as above; type: cell-based, Staphylococcus aureus; conditions: for MIC50 / MIC90 / MIC: Staphylococcus aureus; for MIC50: read-out: MIC50; for MIC90: read-out: MIC90
Chlamydia trachomatis [3] = test: In vitro susceptibility testing of Chlamydia trachomatis in HEp-2 cells (first study); type: cell-based; conditions: Chlamydia trachomatis, C. trachomatis strains, read-out: MIC at which 90% of the strains were inhibited (MIC90)
[4] = test system: methicillin-sensitive S. aureus (MSSA); test: In vitro MIC against isolates of MSSA; type: cell-based, Staphylococcus aureus
[5] = test system: hospital-associated methicillin-resistant S. aureus (MRSA-HA); test: In vitro MIC against isolates of MRSA-HA; type: cell-based, Staphylococcus aureus; conditions: MRSA-HA (33 isolates)
[6] = test system: community-acquired methicillin-resistant S. aureus (MRSA-CA); test: In vitro MIC against isolates of MRSA-CA; type: cell-based, Staphylococcus aureus
Chlamydia trachomatis [7] = test: Susceptibility testing (MIC, MBC) of 10 isolates of C. trachomatis in HEp-2 cells; type: cell-based
Chlamydia pneumoniae = test: Susceptibility testing (MIC, MBC) of 10 isolates of C. pneumoniae in HEp-2 cells; type: cell-based
[8] = Bacteroides fragilis 3374, read-out: MIC
[9] = S. pneumoniae [tetS] (5 isolates)
[10] = Cutibacterium acnes, P. acnes [clinical isolates] (55 isolates)
[11] = Cutibacterium acnes, P. acnes [tetS] (13 isolates)
[12] = MRSA, S. aureus [MRSA] (31 isolates)
[13] = MSSA, S. aureus [MSSA] (32 isolates)
[14] = Staphylococcus aureus, MRSA-CA (33 isolates)

Question: For `CN(C)c1ccc(O)c2c1C[C@H]1C[C@H]3[C@H](N(C)C)C(O)=C(C(N)=O)C(=O)[C@@]3(O)C(O)=C1C2=O` [Minocycline, minocycline], which MIC (Bacteroides fragilis; [8]) is on record?
Answer: 0.03 µg/mL (≈ 0.0656 µM)

Question: What about the MIC (Bacteroides fragilis; Bacteroides fragilis 3479, read-out: MIC) of the same compound?
Answer: 8 µg/mL (≈ 17.5 µM)

Question: And the MIC [1]?
Answer: 0.06 µg/mL (≈ 0.131 µM)

Question: And the MIC (Prevotella spp.; Prevotella spp. 3564)?
Answer: 0.25 µg/mL (≈ 0.546 µM)

Question: What about the MIC (Prevotella spp.; Prevotella spp. 3568) of the same compound?
Answer: 0.25 µg/mL (≈ 0.546 µM)

Question: What about the “MIC Range” value (S. pneumoniae; [9]) of the same compound?
Answer: 0.25-0.25 μg/mL

Question: What about the MIC50 (S. pneumoniae; Streptococcus pneumoniae) of the same compound?
Answer: 0.06 µg/mL (≈ 0.131 µM)

Question: What about the MIC90 (S. pneumoniae; Streptococcus pneumoniae) of the same compound?
Answer: 0.12 µg/mL (≈ 0.262 µM)

Question: What about the “MIC Range” value (S. haemolyticus) of the same compound?
Answer: ≦0.03-0.5 μg/mL

Question: What about the MIC50 (S. haemolyticus) of the same compound?
Answer: 0.06 µg/mL (≈ 0.131 µM)

Question: And the MIC90 (S. haemolyticus)?
Answer: 0.5 µg/mL (≈ 1.09 µM)

Question: What about the MIC90 (E. cloacae) of the same compound?
Answer: 16 µg/mL (≈ 35 µM)

Question: And the MIC50 (P. mirabilis)?
Answer: 16 µg/mL (≈ 35 µM)

Question: And the MIC90 (P. mirabilis)?
Answer: > 32 µg/mL

Question: What about the MIC50 (Salmonella Spp.) of the same compound?
Answer: 2 µg/mL (≈ 4.37 µM)

Question: With `C[C@H]1c2cccc(O)c2C(=O)C2=C(O)[C@]3(O)C(=O)C(C(N)=O)=C(O)[C@@H](N(C)C)[C@@H]3[C@@H](O)[C@@H]21` [Doxycycline, doxycycline] as the compound, how does the MIC [2] read?
Answer: 16 µg/mL (≈ 36 µM)

Question: What about the MIC (Bacteroides fragilis; [8]) of the same compound?
Answer: 0.12 µg/mL (≈ 0.27 µM)

Question: What about the MIC (Bacteroides fragilis; Bacteroides fragilis 3479) of the same compound?
Answer: 16 µg/mL (≈ 36 µM)

Question: What about the MIC [1] of the same compound?
Answer: 0.5 µg/mL (≈ 1.13 µM)

Question: And the MIC (Prevotella spp.; Prevotella spp. 3564)?
Answer: 1 µg/mL (≈ 2.25 µM)

Question: What about the MIC (Prevotella spp.; Prevotella spp. 3568) of the same compound?
Answer: 1 µg/mL (≈ 2.25 µM)

Question: What about the MIC (P. acnes; Cutibacterium acnes) of the same compound?
Answer: 8 µg/mL (≈ 18 µM)

Question: What about the MIC50 (P. acnes; [10]) of the same compound?
Answer: 0.5 µg/mL (≈ 1.13 µM)

Question: What about the MIC90 (P. acnes; [10]) of the same compound?
Answer: 2 µg/mL (≈ 4.5 µM)

Question: And the MIC50 (P. acnes; [11])?
Answer: 0.25 µg/mL (≈ 0.563 µM)

Question: And the MIC90 (P. acnes; [11])?
Answer: 1 µg/mL (≈ 2.25 µM)

Question: What about the “MIC Range” value (P. acnes; P. acnes [clinical isolates] (55 isolates)) of the same compound?
Answer: 0.25 to 16 µg/mL

Question: What about the “MIC Range” value (P. acnes; P. acnes [tetR] (2 isolates)) of the same compound?
Answer: 8-8 μg/mL

Question: And the “MIC Range” value (P. acnes; P. acnes [tetS] (2 isolates))?
Answer: 0.12 to 0.5 µg/mL

Question: And the “MIC Range” value (P. acnes; P. acnes [tetS] (13 isolates))?
Answer: 0.25 to 1 µg/mL

Question: What about the “MIC Range” value (S. aureus; S. aureus [MRSA] (31 isolates)) of the same compound?
Answer: 0.12 to 2 µg/mL

Question: And the “MIC Range” value (S. aureus; S. aureus [MSSA] (32 isolates))?
Answer: 0.12 to 8 µg/mL

Question: What about the “MIC Range” value (S. aureus; S. aureus [tetR] (10 isolates)) of the same compound?
Answer: 1 to 16 µg/mL

Question: And the “MIC Range” value (S. aureus; S. aureus [tetS] (20 isolates))?
Answer: ≦0.06-0.25 μg/mL

Question: What about the MIC50 (S. aureus; [12]) of the same compound?
Answer: 0.12 µg/mL (≈ 0.27 µM)

Question: And the MIC90 (S. aureus; [12])?
Answer: 0.25 µg/mL (≈ 0.563 µM)

Question: And the MIC50 (S. aureus; [13])?
Answer: 0.12 µg/mL (≈ 0.27 µM)

Question: What about the MIC90 (S. aureus; [13]) of the same compound?
Answer: 0.25 µg/mL (≈ 0.563 µM)

Question: What about the MIC50 (S. aureus; S. aureus [tetR] (10 isolates)) of the same compound?
Answer: 4 µg/mL (≈ 9 µM)

Question: What about the MIC90 (S. aureus; S. aureus [tetR] (10 isolates)) of the same compound?
Answer: 16 µg/mL (≈ 36 µM)

Question: What about the MIC50 (S. aureus; S. aureus [tetS] (20 isolates)) of the same compound?
Answer: ≤ 0.06 µg/mL

Question: What about the MIC90 (S. aureus; S. aureus [tetS] (20 isolates)) of the same compound?
Answer: 0.25 µg/mL (≈ 0.563 µM)

Question: And the MIC (S. aureus; S. aureus strain PBS # 1309, tetK)?
Answer: 2 µg/mL (≈ 4.5 µM)

Question: And the MIC (S. aureus; S. aureus strain PBS # 1310, tetM)?
Answer: 16 µg/mL (≈ 36 µM)

Question: What about the MIC (S. aureus; S. aureus strain PBS # 1739, tet38) of the same compound?
Answer: 2 µg/mL (≈ 4.5 µM)

Question: What about the “MIC Range” value (S. pneumoniae; S. pneumoniae [tetR] (5 isolates)) of the same compound?
Answer: 4-4 μg/mL

Question: And the “MIC Range” value (S. pneumoniae; [9])?
Answer: ≦0.06-0.125 μg/mL

Question: What about the MIC50 (S. pneumoniae; Streptococcus pneumoniae) of the same compound?
Answer: 0.06 µg/mL (≈ 0.135 µM)

Question: And the MIC90 (S. pneumoniae; Streptococcus pneumoniae)?
Answer: 0.12 µg/mL (≈ 0.27 µM)

Question: What about the MIC (S. pneumoniae; Streptococcus pneumoniae, S. pneumoniae strain PBS # 511, tetM) of the same compound?
Answer: 4 µg/mL (≈ 9 µM)

Question: What about the “MIC Range” value (S. haemolyticus) of the same compound?
Answer: 0.06 to 16 µg/mL

Question: And the MIC50 (S. haemolyticus)?
Answer: 0.5 µg/mL (≈ 1.13 µM)

Question: And the MIC90 (S. haemolyticus)?
Answer: 16 µg/mL (≈ 36 µM)

Question: And the MIC50 (P. mirabilis)?
Answer: > 32 µg/mL

Question: What about the MIC90 (P. mirabilis) of the same compound?
Answer: > 32 µg/mL

Question: And the MIC90 (Chlamydia trachomatis [3])?
Answer: 0.125 µg/mL (≈ 0.281 µM)

Question: What about the “MIC Range” value ([4]; MSSA (34 isolates)) of the same compound?
Answer: 0.12 to 8 µg/mL

Question: What about the MIC50 ([4]; Staphylococcus aureus, MSSA (34 isolates)) of the same compound?
Answer: 0.25 µg/mL (≈ 0.563 µM)

Question: What about the MIC90 ([4]; Staphylococcus aureus, MSSA (34 isolates), read-out: MIC90) of the same compound?
Answer: 0.5 µg/mL (≈ 1.13 µM)

Question: And the MIC ([4]; Staphylococcus aureus, single strain of doxycycline-resistant MSSA)?
Answer: 8 µg/mL (≈ 18 µM)

Question: What about the “MIC Range” value [5] of the same compound?
Answer: 0.12 to 1 µg/mL

Question: And the MIC50 ([5]; Staphylococcus aureus)?
Answer: 0.25 µg/mL (≈ 0.563 µM)

Question: What about the MIC90 ([5]; Staphylococcus aureus) of the same compound?
Answer: 0.5 µg/mL (≈ 1.13 µM)

Question: What about the “MIC Range” value ([6]; MRSA-CA (33 isolates)) of the same compound?
Answer: 0.12 to 8 µg/mL

Question: What about the MIC50 [6, 14] of the same compound?
Answer: 0.12 µg/mL (≈ 0.27 µM)

Question: What about the MIC90 [6, 14] of the same compound?
Answer: 2 µg/mL (≈ 4.5 µM)

Question: And the MIC ([6]; Staphylococcus aureus, single strain of doxycycline-resistant MRSA-CA)?
Answer: 8 µg/mL (≈ 18 µM)

Question: And the “MIC Range” value (Chlamydia trachomatis [7]; 72 h)?
Answer: 0.03 to 0.25 µg/mL

Question: And the MIC50 (Chlamydia trachomatis [7]; Chlamydia trachomatis, 72 h)?
Answer: 0.06 µg/mL (≈ 0.135 µM)

Question: And the MIC90 (Chlamydia trachomatis [7]; Chlamydia trachomatis, 72 h)?
Answer: 0.125 µg/mL (≈ 0.281 µM)

Question: What about the MBC (Chlamydia trachomatis [7]; Chlamydia trachomatis, after passage, read-out: MBC 90%) of the same compound?
Answer: 0.125 µg/mL (≈ 0.281 µM)

Question: And the “MBC Range” value (Chlamydia trachomatis [7]; after passage)?
Answer: 0.03 to 0.25 µg/mL

Question: What about the “MIC Range” value (Chlamydia pneumoniae; 72 h) of the same compound?
Answer: 0.0625 to 0.125 µg/mL

Question: And the MIC50 (Chlamydia pneumoniae; Chlamydia pneumoniae, 72 h)?
Answer: 0.125 µg/mL (≈ 0.281 µM)

Question: And the MIC90 (Chlamydia pneumoniae; Chlamydia pneumoniae, 72 h)?
Answer: 0.125 µg/mL (≈ 0.281 µM)

Question: And the MBC (Chlamydia pneumoniae; Chlamydia pneumoniae, after passage, read-out: MBC 90%)?
Answer: 0.5 µg/mL (≈ 1.13 µM)

Question: What about the “MBC 90%” value (Chlamydia pneumoniae; after passage) of the same compound?
Answer: 0.5 µg/mL (≈ 1.13 µM)

Question: What about the “MBC Range” value (Chlamydia pneumoniae; after passage) of the same compound?
Answer: 0.25 to 0.5 µg/mL
